In data set [1] the target is T1, human amylin receptor (amylin 3(a) receptor: human calcitonin receptor + RAMP-3) (Homo sapiens, UniProt O60896+P30988).
T1 construct: expressed in transfected cells; host or cells: BHK570
T1 sequence (P30988 25-474): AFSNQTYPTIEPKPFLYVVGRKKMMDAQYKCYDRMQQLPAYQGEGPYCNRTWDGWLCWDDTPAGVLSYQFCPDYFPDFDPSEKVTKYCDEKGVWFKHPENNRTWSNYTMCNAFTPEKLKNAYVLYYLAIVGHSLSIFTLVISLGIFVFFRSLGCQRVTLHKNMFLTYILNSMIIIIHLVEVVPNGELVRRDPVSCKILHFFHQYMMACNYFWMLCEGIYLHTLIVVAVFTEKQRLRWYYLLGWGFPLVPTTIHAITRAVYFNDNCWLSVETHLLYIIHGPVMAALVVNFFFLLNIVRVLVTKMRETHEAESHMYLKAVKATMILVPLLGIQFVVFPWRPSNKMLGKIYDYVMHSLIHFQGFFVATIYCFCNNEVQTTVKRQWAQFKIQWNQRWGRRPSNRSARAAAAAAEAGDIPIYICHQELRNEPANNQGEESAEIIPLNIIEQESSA
T1 sequence (O60896 24-148 partner): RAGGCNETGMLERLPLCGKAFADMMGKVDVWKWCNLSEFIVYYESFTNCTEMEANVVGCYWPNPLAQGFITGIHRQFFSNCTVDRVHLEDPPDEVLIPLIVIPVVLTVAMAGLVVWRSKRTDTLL
In words: Assay (II)a functional CRE-luciferase assay, human amylin receptor. It is filed as cell-based. The conditions noted are these: Table 2; BHK amylin 3(a)-receptor/CRE-luc cells.

Data set [2] concerns the target T2, human calcitonin receptor (Homo sapiens, UniProt P30988).
T2 construct: expressed in transfected cells; host or cells: BHK570
T2 sequence (P30988 25-474): T1 sequence (P30988 25-474)
In words: Assay (II)a functional CRE-luciferase assay, human calcitonin receptor. It is filed as cell-based. The following applies: Table 7; human calcitonin (CTa) receptor.

Data set [3] concerns the target T3, rat amylin 3(a) receptor (rat calcitonin(a) receptor + rat RAMP3) (Rattus norvegicus, UniProt P32214+Q9JJ73).
T3 construct: expressed in transfected cells; host or cells: BHK tk'ts 13
T3 sequence (P32214 25-479 isoform P32214-2 limits assumed): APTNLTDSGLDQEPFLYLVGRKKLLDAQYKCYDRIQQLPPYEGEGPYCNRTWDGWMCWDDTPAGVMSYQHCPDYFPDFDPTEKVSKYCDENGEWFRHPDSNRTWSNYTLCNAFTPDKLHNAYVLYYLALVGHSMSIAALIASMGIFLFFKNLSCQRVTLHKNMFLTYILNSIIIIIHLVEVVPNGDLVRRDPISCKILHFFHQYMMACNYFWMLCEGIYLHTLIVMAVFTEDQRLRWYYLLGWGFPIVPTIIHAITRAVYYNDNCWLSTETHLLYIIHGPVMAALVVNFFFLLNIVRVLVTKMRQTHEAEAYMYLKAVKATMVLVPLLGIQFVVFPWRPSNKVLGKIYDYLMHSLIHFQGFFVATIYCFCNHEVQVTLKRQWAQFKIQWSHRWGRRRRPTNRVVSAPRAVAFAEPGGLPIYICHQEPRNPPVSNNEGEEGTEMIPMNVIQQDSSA
T3 sequence (Q9JJ73 23-147 partner): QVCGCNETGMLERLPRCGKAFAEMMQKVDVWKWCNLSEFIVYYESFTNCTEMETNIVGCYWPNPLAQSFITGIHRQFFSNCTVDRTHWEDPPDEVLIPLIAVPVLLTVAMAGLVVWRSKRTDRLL
In words: Assay (II)b functional cAMP FlashPlate assay, rat amylin receptor. The data set is classed as cell-based. The following applies: Table 11. A digest of the protocol:
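cAMP accumulation in transiently transfected BHK tk'ts 13 cells, 100.000 cells/well, expressing rat calcitonin(a) receptor or its RAMP3 co-expression form (amylin 3(a)): 30 min stimulation with IBMX, 24 hours post-transfection. Readout by competition of cellular versus radiolabelled cAMP in FlashPlates, scintillation counted after 3 h.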

Data set [4] is described as follows: Assay (IV) determination of solubility. The data set is classed as physicochemical. The method, boiled down: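 Solubility was profiled across pH 3.0–8.0 after 18 hours at room temperature: a ~500 nmol/ml aqueous polypeptide solution was diluted 1:1 into 100 mM glycylglycine or bistrispropane buffers. After centrifugation, HPLC gave the dissolved concentration.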

The mark [5] stands for this setting: bistrispropane buffer, pH 6, pH 6.0, read-out: Solubility pH 6.0.
Setting [6] is: bistrispropane buffer, pH 6.5, pH 6.5, read-out: Solubility pH 6.5.
Where [7] appears, read: bistrispropane buffer, pH 7, pH 7.0, read-out: Solubility pH 7.0.
The mark [8] stands for this setting: bistrispropane buffer, pH 7.5, pH 7.5, read-out: Solubility pH 7.5.
Setting [9] is: bistrispropane buffer, pH 8, pH 8.0, read-out: Solubility pH 8.0.
Where [10] appears, read: glycylglycine buffer, pH 3, pH 3.0, read-out: Solubility pH 3.0.
The mark [11] stands for this setting: glycylglycine buffer, pH 4, pH 4.0, 18 hours at room temperature, Table 2, read-out: Solubility pH 4.0.
Setting [12] is: glycylglycine buffer, pH 4, pH 4.0, read-out: Solubility pH 4.0.
Setting [13] is: glycylglycine buffer, pH 5, pH 5.0, read-out: Solubility pH 5.0.
The mark [14] stands for this setting: bistrispropane buffer, pH 7, pH 7.0, 18 hours at room temperature, Table 3, read-out: Solubility pH 7.0.
The mark [15] stands for this setting: bistrispropane buffer, pH 7, pH 7.0, Table 8, read-out: Solubility pH 7.0.
[16] abbreviates: bistrispropane buffer, pH 7, pH 7.0, Table 9, read-out: Solubility pH 7.0.
[17] abbreviates: bistrispropane buffer, pH 7.5, pH 7.5, Table 9, read-out: Solubility pH 7.5.

This is an account of results in patent US8722849B2, “Polypeptides” (Novo Nordisk A/S, priority 2011, dated 2014).

In brackets after ≈: the same amount, converted by molar mass. Like-named read-outs stand apart in the source and are kept apart here. Starred links: 1 amine or outer side, 2 acyl side, 3 side chain; linkers in the order of their positions; H or OH if unused. Positions of bridges follow the written chain, without caps; N, C: chain ends. Residues, ends and D or L forms follow the SMILES beside them. *: point of attachment. C20 diacid = O=C(O)CCCCCCCCCCCCCCCCCCC(=O)*; γGlu = O=C(O)[C@H](CCC(=O)[*:2])N[*:1]

With `CC[C@H](C)[C@H](NC(=O)[C@@H]1CCCN1C(=O)CNC(=O)[C@H](Cc1ccccc1)NC(=O)[C@H](CC(N)=O)NC(=O)[C@H](CC(N)=O)NC(=O)[C@H](CO)NC(=O)[C@H](CO)NC(=O)[C@H](Cc1c[nH]cn1)NC(=O)[C@@H](NC(=O)[C@H](CC(C)C)NC(=O)[C@H](Cc1ccccc1)NC(=O)[C@H](CCC(=O)O)NC(=O)[C@H](C)NC(=O)[C@H](CC(C)C)NC(=O)[C@H](CCCNC(=N)N)NC(=O)[C@H](CCC(N)=O)NC(=O)[C@@H](NC(=O)[C@H](C)NC(=O)[C@@H]1CSSC[C@H](NC(=O)[C@H](CCCCN)NC(=O)CC[C@H](NC(=O)CCCCCCCCCCCCCCCCCCC(=O)O)C(=O)O)C(=O)N[C@@H](CC(N)=O)C(=O)N[C@@H]([C@@H](C)O)C(=O)N[C@@H](C)C(=O)N[C@@H]([C@@H](C)O)C(=O)N1)[C@@H](C)O)C(C)C)C(=O)N[C@@H](CC(C)C)C(=O)N1CCC[C@H]1C(=O)N1CCC[C@H]1C(=O)N[C@H](C(=O)N[C@@H](CC(N)=O)C(=O)N[C@H](C(=O)NCC(=O)N[C@@H](CO)C(=O)N[C@@H](Cc1c[nH]cn1)C(=O)N[C@H](C(=O)N[C@@H](Cc1ccc(O)cc1)C(N)=O)[C@@H](C)O)C(C)C)[C@@H](C)O` [Example 93, N-alpha-[(S)-4-Carboxy-4-(19-carboxynonadecanoylamino)butyryl]-[Glu14,His35]-pramlintide] ({C20 diacid-γGlu}-KCNTATCATQRLAEFLVHSSNNFGPILPPTNVGSHTY-NH2; disulfide 2-7 (inferred); C-terminus assumed), the values for the half-maximal effective concentration (EC50) in data set [1], in data set [2] and in data set [3] were 0.136 nM, 0.18 nM and 0.138 nM, respectively. Further, the solubility – broadly, how much of the substance goes into solution per volume – at 18 h is > 200 µM in data set [4] (setting [5]); 84 µM (≈ 373 µg/mL) in data set [4] (setting [6]); 74 µM (≈ 329 µg/mL) in data set [4] (setting [7]); 163 µM (≈ 724 µg/mL) in data set [4] (setting [8]); > 200 µM in data set [4] (setting [9]); > 200 µM in data set [4] (setting [10]). The solubility at 18 h in data set [4] (setting [11]), in data set [4] (setting [12]) and in data set [4] (setting [13]) was > 200 µM each time.

`CC[C@H](C)[C@H](NC(=O)[C@@H]1CCCN1C(=O)CNC(=O)[C@H](Cc1ccccc1)NC(=O)[C@H](CC(N)=O)NC(=O)[C@H](CC(N)=O)NC(=O)[C@H](CO)NC(=O)[C@H](CO)NC(=O)[C@H](Cc1c[nH]cn1)NC(=O)[C@H](CCCNC(=N)N)NC(=O)[C@H](CC(C)C)NC(=O)[C@H](Cc1ccccc1)NC(=O)[C@H](CCC(=O)O)NC(=O)[C@H](C)NC(=O)[C@H](CC(C)C)NC(=O)[C@H](CCCNC(=N)N)NC(=O)[C@H](CCC(N)=O)NC(=O)[C@@H](NC(=O)[C@H](C)NC(=O)[C@@H]1CSSC[C@H](NC(=O)[C@H](CCCCN)NC(=O)[C@H](CCC(=O)O)NC(=O)CC[C@H](NC(=O)CCCCCCCCCCCCCCCCCCC(=O)O)C(=O)O)C(=O)N[C@@H](CC(N)=O)C(=O)N[C@@H]([C@@H](C)O)C(=O)N[C@@H](C)C(=O)N[C@@H]([C@@H](C)O)C(=O)N1)[C@@H](C)O)C(=O)N[C@@H](CC(C)C)C(=O)N1CCC[C@H]1C(=O)N1CCC[C@H]1C(=O)N[C@H](C(=O)N[C@@H](CC(N)=O)C(=O)N[C@H](C(=O)NCC(=O)N[C@@H](CO)C(=O)N[C@@H](Cc1c[nH]cn1)C(=O)N[C@H](C(=O)N[C@@H](Cc1ccc(O)cc1)C(N)=O)[C@@H](C)O)C(C)C)[C@@H](C)O` [Example 58, N-alpha-[(S)-4-Carboxy-4-(19-carboxynonadecanoylamino)butyryl]-Glu-[Glu14,Arg17,His35]-pramlintide] ({C20 diacid-γGlu}-EKCNTATCATQRLAEFLRHSSNNFGPILPPTNVGSHTY-NH2; disulfide 3-8 (inferred); C-terminus assumed): the values for the EC50 in data set [1], in data set [2] and in data set [3] were 0.117 nM, 0.606 nM and 0.063 nM, respectively. In addition, the solubility at 18 h in data set [4] (setting [5]), in data set [4] (setting [6]), in data set [4] (setting [14]), in data set [4] (setting [15]), in data set [4] (setting [16]) and in data set [4] (setting [7]) was > 200 µM throughout. The solubility at 18 h in data set [4] (setting [17]), in data set [4] (setting [8]), in data set [4] (setting [9]), in data set [4] (setting [10]), in data set [4] (setting [11]) and in data set [4] (setting [12]) was > 200 µM in each case. In addition, the solubility at 18 h in data set [4] (setting [13]) is > 200 µM.

Regarding `CC[C@H](C)[C@H](NC(=O)[C@@H]1CCCN1C(=O)CNC(=O)[C@H](Cc1ccccc1)NC(=O)[C@H](CC(N)=O)NC(=O)[C@H](CC(N)=O)NC(=O)[C@H](CO)NC(=O)[C@H](CO)NC(=O)[C@H](Cc1c[nH]cn1)NC(=O)[C@H](Cc1c[nH]cn1)NC(=O)[C@H](CC(C)C)NC(=O)[C@H](Cc1ccccc1)NC(=O)[C@H](CCC(=O)O)NC(=O)[C@H](C)NC(=O)[C@H](CC(C)C)NC(=O)[C@H](CCCNC(=N)N)NC(=O)[C@H](CCC(N)=O)NC(=O)[C@@H](NC(=O)[C@H](C)NC(=O)[C@@H]1CSSC[C@H](NC(=O)[C@H](CCCNC(=N)N)NC(=O)CC[C@H](NC(=O)CCCCCCCCCCCCCCCCCCC(=O)O)C(=O)O)C(=O)N[C@@H](CC(N)=O)C(=O)N[C@@H]([C@@H](C)O)C(=O)N[C@@H](C)C(=O)N[C@@H]([C@@H](C)O)C(=O)N1)[C@@H](C)O)C(=O)N[C@@H](CC(C)C)C(=O)N1CCC[C@H]1C(=O)N1CCC[C@H]1C(=O)N[C@H](C(=O)N[C@@H](CC(N)=O)C(=O)N[C@H](C(=O)NCC(=O)N[C@@H](CO)C(=O)N[C@@H](CC(N)=O)C(=O)N[C@H](C(=O)N1CCC[C@H]1C(N)=O)[C@@H](C)O)C(C)C)[C@@H](C)O` [Example 96, N-alpha-[(S)-4-Carboxy-4-(19-carboxynonadecanoylamino)butyryl]-[Arg1,Glu14,His17,Pro37]-pramlintide] ({C20 diacid-γGlu}-RCNTATCATQRLAEFLHHSSNNFGPILPPTNVGSNTP-NH2; disulfide 2-7 (inferred)), the values for the half-maximal effective concentration (EC50) in data set [1], in data set [2] and in data set [3] were 0.043 nM, 0.055 nM and 0.088 nM, respectively. Besides, the solubility at 18 h in data set [4] (setting [5]), in data set [4] (setting [6]), in data set [4] (setting [14]), in data set [4] (setting [15]), in data set [4] (setting [16]) and in data set [4] (setting [7]) was > 200 µM each time. Besides, the solubility at 18 h in data set [4] (setting [17]), in data set [4] (setting [8]), in data set [4] (setting [9]), in data set [4] (setting [10]), in data set [4] (setting [11]) and in data set [4] (setting [12]) was > 200 µM throughout. For the same compound, in data set [4] (setting [13]), the solubility at 18 h was > 200 µM.
